In paper PMC6336494 (Nature communications, 2015):

Molecular target: myeloperoxidase (MPO) (Homo sapiens, UniProt P05164)
Assay: guaiacol/H2O2 peroxidase activity assay with purified human MPO
Format: biochemical

Chain of myeloperoxidase (MPO) (P05164 165-273): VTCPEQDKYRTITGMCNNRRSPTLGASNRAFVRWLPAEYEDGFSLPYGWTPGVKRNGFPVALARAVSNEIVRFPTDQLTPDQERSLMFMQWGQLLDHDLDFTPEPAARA
Chain of myeloperoxidase (MPO) (P05164 279-745): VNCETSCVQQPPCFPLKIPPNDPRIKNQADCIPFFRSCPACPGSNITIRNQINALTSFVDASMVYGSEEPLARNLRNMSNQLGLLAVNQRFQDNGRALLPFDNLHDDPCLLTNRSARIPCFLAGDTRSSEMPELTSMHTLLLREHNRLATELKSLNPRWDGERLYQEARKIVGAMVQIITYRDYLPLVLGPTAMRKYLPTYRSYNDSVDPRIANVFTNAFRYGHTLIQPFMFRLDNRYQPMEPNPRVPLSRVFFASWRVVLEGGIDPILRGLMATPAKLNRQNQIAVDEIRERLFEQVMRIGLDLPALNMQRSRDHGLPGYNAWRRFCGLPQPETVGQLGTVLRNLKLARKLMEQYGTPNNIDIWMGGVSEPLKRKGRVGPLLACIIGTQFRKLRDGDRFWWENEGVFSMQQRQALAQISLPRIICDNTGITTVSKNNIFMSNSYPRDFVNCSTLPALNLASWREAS

- IC50: ~1 µM
SMILES: O=C(N[C@H]1COC(=O)[C@@H](NC(=O)c2cccc(O)c2O)COC(=O)[C@@H](NC(=O)c2cccc(O)c2O)COC1=O)c1cccc(O)c1O [enterobactin]
